Molecular target: Lysine--tRNA ligase (Plasmodium falciparum (isolate 3D7), UniProt Q8IDJ8)
Assay: Pf-KRS-1 (Lysyl-RNA Synthetase-1, KRS-1, cytosolic KRS) from Plasmodium falciparum. Inhibitor assay, 384 well plate, luminescence read.
Format: functional
Details: not given

Sequence of Lysine--tRNA ligase (Q8IDJ8 whole entry): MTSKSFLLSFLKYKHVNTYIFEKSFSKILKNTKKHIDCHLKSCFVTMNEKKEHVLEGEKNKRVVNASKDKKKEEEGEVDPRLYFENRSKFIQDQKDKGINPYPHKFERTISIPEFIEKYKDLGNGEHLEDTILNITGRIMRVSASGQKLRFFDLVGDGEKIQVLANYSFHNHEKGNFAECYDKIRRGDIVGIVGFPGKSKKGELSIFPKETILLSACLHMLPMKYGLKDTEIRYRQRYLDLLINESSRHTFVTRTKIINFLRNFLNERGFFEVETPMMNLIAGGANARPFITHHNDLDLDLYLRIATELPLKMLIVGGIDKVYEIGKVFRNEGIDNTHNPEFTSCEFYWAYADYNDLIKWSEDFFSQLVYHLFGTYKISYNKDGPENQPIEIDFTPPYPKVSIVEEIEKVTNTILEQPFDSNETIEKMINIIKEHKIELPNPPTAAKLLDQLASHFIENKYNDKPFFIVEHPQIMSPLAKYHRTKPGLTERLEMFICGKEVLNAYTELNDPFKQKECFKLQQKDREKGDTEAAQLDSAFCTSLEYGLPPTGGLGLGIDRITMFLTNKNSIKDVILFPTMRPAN

Cc1cccc2c1CCN(c1cc(N3CCCC3CO)ncn1)C2 (stereo unspecified) was tested. Which IC50 did it give?
Its IC50 is greater than 50.1 µM.

Which IC50 does the source give for FC(F)(F)c1ccc(CN2CCN(Cc3cscn3)CC2)cc1 here?
The IC50 was greater than 50.1 µM.

Which IC50 does the source give for COc1ccc(OC)c(C(=O)N(C)Cc2ncc(C)c(OC)c2C)c1 here?
The IC50 was greater than 50.1 µM.

Which IC50 does the source give for Cc1ccn2ncc(C(=O)N3CCCC(n4nc(C)nc4C)C3)c2n1 (stereo unspecified) here?
Its IC50 is greater than 50.1 µM.

How did the IC50 turn out when COc1c(C)cnc(CN(C)C(=O)c2ccccc2F)c1C was run?
Its IC50 is greater than 50.1 µM.

For CC(NC(=O)NCCOc1ccc(Cl)cc1)c1nncn1C (stereo unspecified), which IC50 is on record?
Its IC50 is greater than 50.1 µM.

With O=C(CCNC(=O)c1ccoc1)Nc1cccc(F)c1 as the compound, how does the IC50 read?
Its IC50 is greater than 50.1 µM.

How did the IC50 turn out when O=C(CCNC(=O)c1ccoc1)Nc1cc(F)ccc1F was run?
Its IC50 is greater than 50.1 µM.

O=C(CCNC(=O)c1ccoc1)Nc1cc(F)cc(F)c1 was tested. Which IC50 did it give?
The IC50 was greater than 50.1 µM.

COc1ccc(NC(=O)N2CCCC2c2ccncc2)cn1 (stereo unspecified) was tested. Which IC50 did it give?
The IC50 was greater than 50.1 µM.

COc1ccc(C2CCCN2C(=O)Nc2ccc(OC)nc2)cc1 (stereo unspecified) was tested. Which IC50 did it give?
Its IC50 is greater than 50.1 µM.

With Cn1cnnc1C1CCCN(C(=O)c2ccc3c(c2)OCCO3)C1 (stereo unspecified) as the compound, how does the IC50 read?
Its IC50 is greater than 50.1 µM.

How did the IC50 turn out when COCCOc1ccc(NC(=O)N2CCCC2c2ccsc2)cn1 (stereo unspecified) was run?
Its IC50 is greater than 50.1 µM.

With COc1ccc(CC(=O)N2CCCC(c3nncn3C)C2)cc1 (stereo unspecified) as the compound, how does the IC50 read?
The IC50 was greater than 50.1 µM.

COCCOc1ccccc1C(=O)N(C)Cc1ncc(C)c(OC)c1C was tested. Which IC50 did it give?
Its IC50 is greater than 50.1 µM.

For COCCOc1ccc(NC(=O)N2CCCC2c2cccs2)cn1 (stereo unspecified), which IC50 is on record?
Its IC50 is greater than 50.1 µM.

For COc1c(C)cnc(CN(C)C(=O)c2ccccc2O)c1C, which IC50 is on record?
Its IC50 is greater than 50.1 µM.

CC(NC(=O)NCCCOc1ccccc1F)c1nncn1C (stereo unspecified) was tested. Which IC50 did it give?
Its IC50 is greater than 50.1 µM.

N#Cc1cccc(CN2CCN(Cc3cscn3)CC2)c1 was tested. Which IC50 did it give?
Its IC50 is greater than 50.1 µM.

How did the IC50 turn out when Cc1cccc(OCCCNC(=O)NC(C)c2nncn2C)c1 (stereo unspecified) was run?
The IC50 was greater than 50.1 µM.

How did the IC50 turn out when Fc1cccc(CN2CCN(Cc3cscn3)CC2)c1 was run?
Its IC50 is greater than 50.1 µM.

For COc1cccc(C(=O)N(C)Cc2ncc(C)c(OC)c2C)c1OC, which IC50 is on record?
Its IC50 is greater than 50.1 µM.

With Cc1nc(NC(=O)CN2CCOC(Cn3cccn3)C2)sc1C (stereo unspecified) as the compound, how does the IC50 read?
Its IC50 is greater than 50.1 µM.

For Cc1nnc(NC(=O)CN2CCOC(Cn3cccn3)C2)s1 (stereo unspecified), which IC50 is on record?
The IC50 was greater than 50.1 µM.

Which IC50 does the source give for Cc1nn(C)c(C)c1NC(=O)CN1CCOC(Cn2cccn2)C1 (stereo unspecified) here?
The IC50 was greater than 50.1 µM.

Which IC50 does the source give for Cc1nc(CN2CCCC(N(C)Cc3nc(CC(C)C)no3)C2)no1 (stereo unspecified) here?
Its IC50 is greater than 50.1 µM.

Which IC50 does the source give for CC(C)c1nccn1C1CCCN(C(=O)c2ccc3c(c2)COC3)C1 (stereo unspecified) here?
Its IC50 is greater than 50.1 µM.

With Cc1nc(CN(C)C2CCN(Cc3c(C)noc3C)C2)no1 (stereo unspecified) as the compound, how does the IC50 read?
The IC50 was greater than 50.1 µM.

Cc1csc(CNC(=O)N(C)Cc2ccc3c(c2)OCCO3)n1 was tested. Which IC50 did it give?
Its IC50 is greater than 50.1 µM.

With CCN(Cc1ccc2c(c1)OCO2)C(=O)NCc1nc(C)cs1 as the compound, how does the IC50 read?
Its IC50 is greater than 50.1 µM.

With Cc1csc(CNC(=O)NCc2ccc3c(c2)OCCO3)n1 as the compound, how does the IC50 read?
Its IC50 is greater than 50.1 µM.

Which IC50 does the source give for CCOc1ccc(CC(CNC(=O)c2ccoc2C)C(N)=O)cc1 (stereo unspecified) here?
Its IC50 is greater than 50.1 µM.

How did the IC50 turn out when CCOc1ccc(CC(CNC(=O)c2ccc(C)o2)C(N)=O)cc1 (stereo unspecified) was run?
Its IC50 is greater than 50.1 µM.

How did the IC50 turn out when CC(C)c1nccn1C1CCCN(C(=O)c2cccc3[nH]ncc23)C1 (stereo unspecified) was run?
Its IC50 is greater than 50.1 µM.

Which IC50 does the source give for CCc1nc(C2CCCN2Cc2noc(Cc3ccccc3)n2)no1 (stereo unspecified) here?
The IC50 was greater than 50.1 µM.

Cc1noc(C2CCCN(C(=O)c3cc(Cl)ccc3F)C2)n1 (stereo unspecified) was tested. Which IC50 did it give?
Its IC50 is greater than 50.1 µM.

Which IC50 does the source give for O=C(c1ccccn1)N1CCCN(Cc2nnc(C3CC3)o2)CC1 here?
The IC50 was greater than 50.1 µM.

With CCc1nc(CN2CCOC(CN(CC)c3cccnn3)C2)cs1 (stereo unspecified) as the compound, how does the IC50 read?
Its IC50 is greater than 50.1 µM.

Cc1nnc(N2CCC(CCN(C)C)CC2)c(C#N)c1C was tested. Which IC50 did it give?
The IC50 was greater than 50.1 µM.

Cc1ncc(CN2CCOC(CN(C)c3cccnn3)C2)s1 (stereo unspecified) was tested. Which IC50 did it give?
The IC50 was greater than 50.1 µM.

How did the IC50 turn out when CSC(C)C(=O)NCc1ccc(-n2cncn2)nc1 (stereo unspecified) was run?
Its IC50 is greater than 50.1 µM.

How did the IC50 turn out when CCc1nnsc1C(=O)N1CCCN(Cc2ccccc2)CC1 was run?
The IC50 was greater than 50.1 µM.

CNS(=O)(=O)c1ccc(CNC(=O)NCC2CCC2)cc1 was tested. Which IC50 did it give?
Its IC50 is greater than 50.1 µM.

With O=C(NCCc1ccccn1)C1=NN(c2ccccc2)C(=O)CN1 as the compound, how does the IC50 read?
The IC50 was greater than 50.1 µM.

With Cc1cc(CN(C)C(=O)c2cccc(N3CCCC3=O)c2)no1 as the compound, how does the IC50 read?
Its IC50 is greater than 50.1 µM.

For Cc1ccc(C2CCCN2Cc2nc3c(cnn3C)c(=O)[nH]2)cc1C (stereo unspecified), which IC50 is on record?
Its IC50 is greater than 50.1 µM.

For Cn1ncc2c(=O)[nH]c(CN3CCCC3c3cccs3)nc21 (stereo unspecified), which IC50 is on record?
Its IC50 is greater than 50.1 µM.

Which IC50 does the source give for CN(C)c1cc2c(nn1)CCN(C(=O)C1Cc3ccccc3S1)C2 (stereo unspecified) here?
The IC50 was greater than 50.1 µM.

For Cc1cnn(CCNCC(O)COc2ccc(Cl)cc2)c1 (stereo unspecified), which IC50 is on record?
The IC50 was greater than 50.1 µM.

For Clc1snnc1CN1CCCCC1Cn1cncn1 (stereo unspecified), which IC50 is on record?
Its IC50 is greater than 50.1 µM.

How did the IC50 turn out when CCCOc1ccc(CNC(=O)N2CCC(C(N)=O)C2)cc1 (stereo unspecified) was run?
Its IC50 is greater than 50.1 µM.

How did the IC50 turn out when CS(=O)(=O)c1ccc(CNC(=O)N2CCC(C(N)=O)C2)cc1 (stereo unspecified) was run?
Its IC50 is greater than 50.1 µM.

For CCn1ncc2c1CCCC2NCc1ccc(OC)c(C)c1 (stereo unspecified), which IC50 is on record?
The IC50 was greater than 50.1 µM.

With COc1cccc(-n2c(C)cc(C(=O)NS(C)(=O)=O)c2C)c1 as the compound, how does the IC50 read?
The IC50 was greater than 50.1 µM.

With CCOc1cccc2c1OCC(C(=O)NS(=O)(=O)Cc1ccccc1)=C2 as the compound, how does the IC50 read?
The IC50 was greater than 50.1 µM.

How did the IC50 turn out when O=C(c1cnc(-c2cccs2)s1)N1CCCC(n2cccn2)C1 (stereo unspecified) was run?
The IC50 was greater than 50.1 µM.

For O=C(NCc1csc(Br)c1)c1ccncc1, which IC50 is on record?
The IC50 was greater than 50.1 µM.

c1cnc(N2CCCC(NCc3ccc(-n4ccnc4)cc3)C2)nc1 (stereo unspecified) was tested. Which IC50 did it give?
The IC50 was greater than 50.1 µM.

How did the IC50 turn out when Fc1ccc(C2(CNC3=NCCN3)CCCC2)cc1.I was run?
Its IC50 is greater than 50.1 µM.

System: Plasmodium falciparum
Assay: Calibr Malaria Delayed Death Assay SOP
Format: functional, organism-based
Details: not given

For Fc1ccc(C2(CNC3=NCCN3)CCCC2)cc1.I, which pIC50 is on record?
Its pIC50 is 6.191.

Same assay, conditions: Plasmodium falciparum

How did the IC50 turn out when Fc1ccc(C2(CNC3=NCCN3)CCCC2)cc1.I was run?
The IC50 was 0.629 µM.
